Data set [1] deals with wide range of commonly encountered pathogenic organisms. The data set can be described thus: Broad spectrum / general antibiotic activity. Type of data set: cell-based.
Data set [2] can be described thus: Bactericidal action. The conditions noted are these: at concentrations close to the minimum inhibitory concentration. The class given is cell-based.
Data set [3] concerns Pseudomonas aeruginosa. Nature of the data set: Experimental infections in mice with Pseudomonas aeruginosa. Type of data set: in vivo.
The nature of data set [4]: Nephrotoxicity in rats. Type of data set: in vivo. The note with it: dosages of 2.0 g/kg.
In data set [5] the test system is gram-negative bacteria. The data set can be described thus: Experimental infections in mice with gram-negative bacteria. Type of data set: in vivo.
A short description of data set [6]: Distribution in small rodents after subcutaneous injection.
A short description of data set [7]: Effect of human serum on antibacterial properties. The class given is cell-based.
The conditions of data set [8]: in vivo.
Data set [9] can be described thus: Acute toxicity tests in mice. The note with it: mouse, in vivo.
For data set [10] the following is noted: in vivo. The source holds these as a separate data set.
The test system of data set [11] is strains of Pseudomonas organisms. The data set can be described thus: Antibacterial activity against strains of Pseudomonas organisms. Type of data set: cell-based. The note with it: e.g. strains of Pseudomonas aeruginosa.
A short description of data set [12]: Effect of increased inocula. The class given is cell-based.

On to `Nc1nc(/C(=N/OC2(C(=O)O)CCC2)C(=O)N[C@@H]2C(=O)N3C(C(=O)[O-])=C(C[n+]4ccccc4)CS[C@H]23)cs1` [(6R,7R)-7-[(Z)-2-(2-aminothiazol-4-yl)-2-(1-carboxycyclobut-1-oxyimino)acetamido]-3-(1-pyridiniummethyl)-ceph-3-em-4-carboxylate], for which the “properties compared with the compound of formula (Ib)” value in data set [1] is on record as “not dissimilar properties”.

Turning to `CC(C)(O/N=C(\C(=O)N[C@@H]1C(=O)N2C(C(=O)[O-])=C(C[n+]3ccccc3)CS[C@H]12)c1csc(N)n1)C(=O)O` [compound of formula (Ib), (6R,7R)-7-[(Z)-2-(2-aminothiazol-4-yl)-2-(2-carboxyprop-2-oxyimino)acetamido]-3-(1-pyridiniummethyl)-ceph-3-em-4-carboxylate], the bactericidal action entry in data set [2] is “rapidly bactericidal”. Besides, the “protection against strains of Pseudomonas aeruginosa” value in [3] was “excellent protection”. For the same compound, in [3] (versus amikacin), the “protection compared with an aminoglycoside such as amikacin” value is listed as “comparable”. Moreover, the “antibiotic activity / general antibiotic properties” value in data set [1] is listed as “possesses to an outstanding extent the general antibiotic properties”. Further, the nephrotoxicity entry in [4] is “No nephrotoxicity was observed”. Moreover, the “treatment of experimental infections in mice with gram-negative bacteria” value in [5] was “successfully treated”. The therapeutic levels entry in data set [6] is reported as “useful therapeutic levels”. Also, the “impairment of antibacterial properties by human serum” value in data set [7] is listed as “not impaired by human serum”. Besides, the “distribution in the body” value in data set [8] is given as “well distributed”. Besides, in [9], the median lethal dose (LD50) is over 1000 mg/kg. The serum levels entry in data set [10] is “high and long lasting serum levels”. The “activity against strains of Pseudomonas organisms” value in [11] was “excellent activity”. Moreover, the “effect of increased inocula” value in data set [12] is reported as “low”.

One may read the LD50 as the dose expected to kill half of the subjects tested.

For the origin of these results see patent US4600772A, “Cephalosporin antibiotics” (Glaxo Group Limited, priority 1978, dated 1986).
